Key:
[1] = system: mice subjected to restraint stress; assay: Light-dark box after restraint stress (Example 1, Experiment 1); assay type: in vivo, C57BL/6 mice; conditions: RS mice treated with cotinine; p=0.035
Description: Mice were treated immediately after the 21 days of immobilization stress (6 h/day) until euthanasia. Mice (n=5-8/condition) received daily treatments with 1. PBS (phosphate buffer saline, pH 7.4) via intranasal (2×12 μl/nostril), 2. PBS via gavage (50 μl); 3. Cotinine dissolved in PBS via oral (gavage, (0.5 mg/kg; Cot 0.5); 4. Cotinine dissolved in PBS via intranasal (Cot IN, 10 mg/ml, 2×12 μl/nostril).
(§1) To induce chronic stress, the restraint stress paradigm was used as previously described. Mice are immobilized in 50 ml falcon plastic tubes that were attached to mouse cages. The immobilization proceeded during 6 h from 9:00 AM to 3:00 PM in absence of treatments. Tubes have holes in the opposite side of the tube to allow the animal breathing and urination. Mice were almost completely immobilized for 6 h/day for 21 days after which they were permitted freely to move, eat and drink.
Behavioral analysis was performed using the Any-maze® software (Stoelting CO, USA) to track the activity of animals. Mice were tested for depressive behavior, anxiety, locomotor activity and working memory using the Porsolt's test; Light-dark box (LDB) and the elevated plus Maze (EPM), open field (OF), and Novel object recognition (NOR), respectively.

[2] = system: mice subjected to restraint stress; assay: Porsolt test, oral co-treatment during restraint stress (Example 1, Experiment 2); assay type: in vivo, C57BL/6 mice; conditions: RS mice, cotinine 5 mg/kg, KO, or mix, vs stressed vehicle
Description: Mice (n=5-8/condition) were treated via oral during and after restraint stress continuously until euthanasia.
Mice received daily treatments with
2. Cotinine dissolved in PBS via oral (gavage, (5 mg/kg; Cot 0.5)
3. Krill oil (KO) via oral (5 mg/ml in PBS, 50 μl) continuously from the beginning of the restraint stress until euthanasia.
as §1
This test is used to measure the antidepressant effects of drugs, and consists in placing each mouse in a transparent cylinder filled with water at room temperature (RT). After a brief period of strong activity, rodents adopt a characteristic immobile posture. The time mice spent immobile is a measure of depressive-like behavior. The immobility time will be recorded during a 15-min and a next day 5-min trial. The time spent by each mouse immobile will be recorded.

[3] = system: mice subjected to fear conditioning; assay: Contextual fear retention and extinction (Example 1, Experiment 3); assay type: in vivo, C57BL/6 mice
From the text: Between trials, the chamber was sanitized with 70% ethanol and dried.

GFAP+ astrocytes = assay: Morphology and fractal analysis of GFAP+ cells in the hippocampus (Example 2); assay type: in vivo, C57BL/6 male mice
Description: For the IR analysis, for each mouse, three digital images were randomly selected at 40× magnifications in the areas of interest (hippocampus and frontal cortex) (n=5-6/condition). The images were taken using a digital camera attached to a light microscope (Micrometrics, MilesCo Scientific, Princeton, Minn., USA) connected to a camera operated by a commercial software (Micrometrics SE Premium). The determination of the area of the immunolabeling was calculated delimiting the IR areas using the ImageJ software (National Institute of Health, Bethesda, […]., USA). For all analyses, GFAP^+ astrocytes were selected randomly from the frontal cortex and the CA1, CA3 and dentate gyrus regions of the hippocampus and quantified. Using a digital camera on an inverted microscope, black and white images of GFAP^+ astrocytes were obtained and processed with Image J software. Using a 20× objective, cells were chosen randomly in the same area selected for immunostaining, and the binary overlay of a cell was created by thresholding. For all images, a threshold value was established at the level at which the binary overlay entirely enclosed the cell body and projections. All pixels above the threshold value were considered as belonging to the cell images. Finally, the binary silhouette of the whole cell was reduced to its one-pixel outline for estimation of the fractal dimensions with the FracLac 2.5 ImageJ plug-in (Karperien et al., 2013; Karperien and Jelinek, 2015)
Fractal analysis was done on binary images by means of the dilation method (Schaffner and Ghesquiere, 2001). The slope of the regression line (S) is related to the fractal dimension (D) by D=1−S. Each pixel in the cell outline was replaced with a disk of a diameter fluctuating from 3-61 pixels and the area of the widened outline divided by the diameter of structuring element was plotted against this diameter on a log-log scale.
the area of the cell body that is calculated as the two-dimensional cross-sectional area contained within the boundary of the cell body.
The area of the convex polygon formed by connecting the tips of the longest astrocytic processes (convex hull area). Convex hull values indicate the size of the branching field of the astrocyte. The amount of physical space is defined in terms of convex-hull volume, surface area, area, and or perimeter.
Measures heterogeneity and complements fractal dimension analysis in describing structural complexity (Karperien et al., 2013; Karperien and Jelinek, 2015; Schaffner and Ghesquiere, 2001).

restrained mice = assay: Forced swim test, oral co-treatment during restraint stress (Example 3); assay type: in vivo, C57BL/6J mice; conditions: oral cotinine 5 mg/kg, KO 143 mg/kg or both, vs vehicle-treated restrained mice
Description: Mice after acclimatization and one week of handling were randomly divided into five groups (n=8/condition) and orally treated as follow: 1) control non-restrained mice treated with vehicle (PBS, pH 7.4); 2) restrained mice treated with vehicle; 3), restrained mice treated with a cotinine solution (5 mg/kg in PBS, pH 7.4) via gavage; 4) restrained mice treated with KO (143 mg/kg); 5) restrained mice treated with cotinine plus KO solution. Mice were started with treatments, the first day of restraint and continuously until euthanasia. Treatments were administered at the same time of the day, 30 min before restraint. After 21 days into treatments, mice were behaviorally tested (FIG. 17).
Restraint stress (RS) was used as a model of chronic stress-induced depressive-like behavior and cognitive impairment. We used this task because is a reliable method that mimics the effects of chronic stress without causing physical pain or unnecessary discomfort to the mice. Mice were gently introduced into a 50-ml conical transparent plastic tubes (Corning Inc.). The tubes contain non-protruding perforations in both ends and in the walls to permit ventilation and only permitted slight movements. […]
The forced swim (FS) is a broadly used task to assess depressive-like behavior in rodents. […] Immobility time was recorded and quantified by two investigators blind to the treatment groups.

[4] = cotinine-treated restrained mice

In the case of `CN1C(=O)CC[C@H]1c1cccnc1` [Cotinine, (5S)-1-methyl-5-(3-pyridyl) pyrrolidin-2-one], the “number of entries to the light zone (light-dark box)” value [1] is reported as “almost completely restored the number of entries to the light zone”, the “depressive-like behavior (freezing behavior) in the Porsolt test” value [2] is reported as “non-significant decrease in depressive-like behavior” and the “freezing in the contextual retention test (consolidation of fear memory)” value ([3]; IN treatment started 2 h after FC, test 24 h after FC) is reported as “levels of freezing similar to control mice”. For the same molecule, the “freezing behavior during contextual fear extinction trials” value ([3]; daily IN treatment, daily 3 min re-exposure) was “significant enhancement of memory extinction on day 2 and 3”, the “day of maximal decrease in freezing during extinction” value ([3]; daily IN treatment, control mice day 5) was 3 days and the “GFAP+ cell area across CA1, CA3 and DG” value (GFAP+ astrocytes; [4]) was “statistically indistinguishable from nonstressed controls”. The “appearance of GFAP+ astrocytes in hippocampi and frontal cortices” value (GFAP+ astrocytes; [4]) was “large GFAP^+ cells with longer and more complex arborization”, the “arbor area of astrocytes, DG” value (GFAP+ astrocytes; p<0.001 vs vehicle-treated restrained mice) was “greater astrocytic arborization than vehicle-treated, restrained mice” and the “fractal dimension (FD) of astrocytes, DG” value (GFAP+ astrocytes; p<0.05) was “vehicle-treated, restrained mice had a significant reduction in FD of astrocytes in the DG when compared to cotinine-treated, restrained mice”. The “lacunarity of astrocytes, DG” value (GFAP+ astrocytes; p<0.05) was “vehicle-treated, restrained mice had reduced lacunarity of astrocytes relative to both their cotinine-treated, stressed”, the “arbor area of astrocytes, CA3” value (GFAP+ astrocytes; p<0.05 vs non-stressed controls, p<0.01 vs vehicle-treated restrained) was “significantly more arbor area of astrocytes than non-stressed controls” and the “arbor area of astrocytes, CA1” value (GFAP+ astrocytes; p<0.05 vs non-stressed controls, p=0.075 vs vehicle-treated stressed) was “significantly more arbor area than the non-stressed controls”. For the same molecule, the “immobility in the forced swim test” value (restrained mice) was “no significant differences”.
